Data from the NIST ThermoML archive (doi:10.1021/je800894y).

Experiment: xn = mol fraction of the nth substance listed
Details: Liquid; for viscosity: Vibrating wire viscometry; for mass density: vibrating-wire apparatus

CC(C)CCCC(C)CCCC(C)CCCCC(C)CCCC(C)CCCC(C)C (configuration not stated) [2,6,10,15,19,23-hexamethyltetracosane] + O=C=O
Details	mass density [kg/m3]	viscosity [mPa·s]
303.15 K, 10060 kPa, x2 = 0.4233	814.8	9.12
303.15 K, 10070 kPa, x2 = 0.4233	815.3	9.17
303.15 K, 30380 kPa, x2 = 0.4233	828	12.7
303.15 K, 50510 kPa, x2 = 0.4233	839.2	17.3
303.15 K, 70400 kPa, x2 = 0.4233	849.3	23
303.15 K, 90250 kPa, x2 = 0.4233	856.5	30.5
303.15 K, 110380 kPa, x2 = 0.4233	862.1	40.1
303.15 K, 130280 kPa, x2 = 0.4233	867.8	52.3
303.15 K, 150080 kPa, x2 = 0.4233	869.4	67.8
303.15 K, 170210 kPa, x2 = 0.4233	882.8	85.9
303.17 K, 30190 kPa, x2 = 0.7882	854.3	2.36
303.17 K, 30740 kPa, x2 = 0.7882	847.4	2.24
303.17 K, 50100 kPa, x2 = 0.7882	863.4	2.79
303.17 K, 70730 kPa, x2 = 0.7882	877.8	3.43
303.17 K, 90490 kPa, x2 = 0.7882	890	4.15
303.17 K, 110640 kPa, x2 = 0.7882	901.1	4.95
303.17 K, 130570 kPa, x2 = 0.7882	911	5.91
303.17 K, 151340 kPa, x2 = 0.7882	922.8	6.94
303.17 K, 170570 kPa, x2 = 0.7882	934.8	8.13
303.18 K, 10600 kPa, x2 = 0.6039	823.9	4.92
303.18 K, 30810 kPa, x2 = 0.6039	838.1	6.58
303.18 K, 50820 kPa, x2 = 0.6039	850.4	8.58
303.18 K, 70800 kPa, x2 = 0.6039	861	11
303.18 K, 91100 kPa, x2 = 0.6039	871.1	14
303.18 K, 100670 kPa, x2 = 0.6039	874.8	15.6
303.18 K, 111110 kPa, x2 = 0.6039	879.9	17.5
303.18 K, 130850 kPa, x2 = 0.6039	888.1	21.7
303.18 K, 150500 kPa, x2 = 0.6039	897.9	26.5
303.18 K, 170440 kPa, x2 = 0.6039	910.5	32
348.11 K, 10450 kPa, x2 = 0.6039	787.7	1.92
348.11 K, 10480 kPa, x2 = 0.6039	788.1	1.92
348.11 K, 30310 kPa, x2 = 0.6039	806	2.49
348.11 K, 50270 kPa, x2 = 0.6039	820.7	3.13
348.11 K, 70180 kPa, x2 = 0.6039	833.3	3.85
348.11 K, 90320 kPa, x2 = 0.6039	844.4	4.68
348.11 K, 110880 kPa, x2 = 0.6039	854.6	5.64
348.11 K, 130860 kPa, x2 = 0.6039	863.7	6.7
348.11 K, 150870 kPa, x2 = 0.6039	872.1	7.9
348.11 K, 170910 kPa, x2 = 0.6039	879.8	9.28
348.25 K, 10070 kPa, x2 = 0.4233	783.6	2.99
348.25 K, 10100 kPa, x2 = 0.4233	783.4	2.98
348.25 K, 30390 kPa, x2 = 0.7882	806	1.08
348.25 K, 30440 kPa, x2 = 0.4233	799.2	3.95
348.25 K, 30610 kPa, x2 = 0.7882	806.9	1.07
348.25 K, 50540 kPa, x2 = 0.7882	827	1.34
348.25 K, 50590 kPa, x2 = 0.4233	812.2	5.1
348.25 K, 70530 kPa, x2 = 0.4233	823.5	6.42
348.25 K, 70650 kPa, x2 = 0.7882	844	1.61
348.25 K, 90610 kPa, x2 = 0.4233	833.7	7.98
348.25 K, 90680 kPa, x2 = 0.7882	858.4	1.91
348.25 K, 110350 kPa, x2 = 0.7882	870.8	2.22
348.25 K, 110610 kPa, x2 = 0.4233	842.8	9.83
348.25 K, 130400 kPa, x2 = 0.4233	851.3	11.9
348.25 K, 130530 kPa, x2 = 0.7882	882.3	2.57
348.25 K, 150600 kPa, x2 = 0.7882	892.7	2.94
348.25 K, 150670 kPa, x2 = 0.4233	859.3	14.5
348.25 K, 169670 kPa, x2 = 0.4233	866.3	17.3
348.25 K, 170310 kPa, x2 = 0.7882	902	3.34
398.13 K, 10940 kPa, x2 = 0.6039	749.2	1.01
398.13 K, 11100 kPa, x2 = 0.6039	748.9	1
398.13 K, 30870 kPa, x2 = 0.6039	771.8	1.3
398.13 K, 50550 kPa, x2 = 0.6039	789.2	1.61
398.13 K, 70810 kPa, x2 = 0.6039	804.2	1.95
398.13 K, 91230 kPa, x2 = 0.6039	817.2	2.31
398.13 K, 110700 kPa, x2 = 0.6039	828.2	2.69
398.13 K, 131240 kPa, x2 = 0.6039	838.7	3.12
398.13 K, 150740 kPa, x2 = 0.6039	847.7	3.57
398.13 K, 170660 kPa, x2 = 0.6039	856.2	4.08
398.31 K, 10790 kPa, x2 = 0.4233	749	1.38
398.31 K, 10830 kPa, x2 = 0.4233	755.3	1.39
398.31 K, 30180 kPa, x2 = 0.4233	768.1	1.79
398.31 K, 50350 kPa, x2 = 0.4233	784	2.24
398.31 K, 70500 kPa, x2 = 0.4233	797.4	2.74
398.31 K, 90450 kPa, x2 = 0.4233	808.9	3.3
398.31 K, 110290 kPa, x2 = 0.4233	819.1	3.92
398.31 K, 130350 kPa, x2 = 0.4233	828.4	4.62
398.31 K, 150520 kPa, x2 = 0.4233	837.2	5.4
398.31 K, 170000 kPa, x2 = 0.4233	845	6.24
398.33 K, 30150 kPa, x2 = 0.7882	760.4	0.62
398.33 K, 30500 kPa, x2 = 0.7882	759.9	0.62
398.33 K, 50500 kPa, x2 = 0.7882	786.7	0.78
398.33 K, 70580 kPa, x2 = 0.7882	807.3	0.94
398.33 K, 90510 kPa, x2 = 0.7882	824.2	1.1
398.33 K, 110760 kPa, x2 = 0.7882	839	1.28
398.33 K, 130550 kPa, x2 = 0.7882	851.6	1.46
398.33 K, 150620 kPa, x2 = 0.7882	863.2	1.65
398.33 K, 170310 kPa, x2 = 0.7882	873.6	1.84
448.13 K, 10630 kPa, x2 = 0.6039	713.1	0.69
448.13 K, 11010 kPa, x2 = 0.6039	713.3	0.68
448.13 K, 30730 kPa, x2 = 0.6039	739.7	0.89
448.13 K, 50590 kPa, x2 = 0.6039	759.8	1.09
448.13 K, 70380 kPa, x2 = 0.6039	776.6	1.22
448.13 K, 91380 kPa, x2 = 0.6039	791.8	1.43
448.13 K, 111050 kPa, x2 = 0.6039	804.5	1.63
448.13 K, 130810 kPa, x2 = 0.6039	815.7	1.84
448.13 K, 150960 kPa, x2 = 0.6039	826	2.08
448.13 K, 171000 kPa, x2 = 0.6039	835.3	2.35
448.35 K, 11450 kPa, x2 = 0.4233	715.2	0.8
448.35 K, 11570 kPa, x2 = 0.4233	720.6	0.81
448.35 K, 30330 kPa, x2 = 0.4233	737.6	1.04
448.35 K, 50410 kPa, x2 = 0.4233	756.5	1.3
448.35 K, 70450 kPa, x2 = 0.4233	771.8	1.57
448.35 K, 90670 kPa, x2 = 0.4233	785.2	1.86
448.35 K, 110310 kPa, x2 = 0.4233	796.6	2.17
448.35 K, 130440 kPa, x2 = 0.4233	807	2.52
448.35 K, 150510 kPa, x2 = 0.4233	816.5	2.88
448.35 K, 169900 kPa, x2 = 0.4233	824.8	3.28
448.41 K, 30160 kPa, x2 = 0.7882	714.5	0.41
448.41 K, 30820 kPa, x2 = 0.7882	714.9	0.41
448.41 K, 50450 kPa, x2 = 0.7882	748	0.52
448.41 K, 70350 kPa, x2 = 0.7882	772.5	0.63
448.41 K, 90420 kPa, x2 = 0.7882	792.3	0.74
448.41 K, 110590 kPa, x2 = 0.7882	809.1	0.85
448.41 K, 130360 kPa, x2 = 0.7882	823.3	0.97
448.41 K, 150480 kPa, x2 = 0.7882	836.2	1.1
448.41 K, 169720 kPa, x2 = 0.7882	847.5	1.22
